Source: patent US20040067222A1, “Regulation of glucocorticoid concentration” (priority 2001, published 2004)

Experiments:
[1] = molecular target: T1, 11β-HSD1 (Mus musculus, UniProt P50172); experiment: Conversion of 3H-11-dehydrocorticosterone to corticosterone in macrophage cultures (FIG. 2b, 2c); type: cell-based
T1 construct: endogenous in cells; host or cells: mouse macrophages (probably thioglycollate-elicited peritoneal macrophages from C57Bl/6 mice)
Excerpt: (§1) Samples were taken at different times and ^3H-cort and ^3H-11-DHC were separated from media samples by thin layer chromatography and analysed by phosphorimaging.

[2] = test system: murine peripheral macrophages; experiment: Phagocytosis by murine peripheral macrophages (FIG. 3); type: cell-based; conditions: for phagocytosis performance of macrophages: over 24 hours
Experimental: (§2) Fresh PMN were isolated from peripheral blood and aged to apoptosis in Teflon wells over 24 hrs in Iscoves/10% autologous serum. Mφ were treated with glucocorticoids as described in the figures. Mφ and aPMN were washed with 1×PBS and interacted in serum free Iscoves for 30 mins at 37° C. The cell layer was gently washed to remove […] cells, fixed in 1×Formalin and stained with PMN selective myeloperoxidase.

[3] = test system: murine BMD Mφ; experiment: Phagocytosis of apoptotic PMN by BMD Mφ from control and 11β-HSD-/- mice (FIG. 4); type: cell-based; conditions: for enhanced phagocytic effect in 11βHSD-1-/- Mφ: 11βHSD-1-/- macrophages versus control; for phagocytosis of apoptotic PMN by BMD Mφ: 48 hrs treatment, n=4/group
Experimental: Bone Marrow Derived Macrophages (BMD Mφ)—bone marrow was extracted from femurs (C57BI/6 mice) and cultured @4×10^5 cells/ml in DMEM/10% FCS/10% L929 cell line supernatant for 8 days.
as §2
Transgenic 11β-HSD^−/− mice have been described previously (Kotelevstev et al., PNAS (USA) 94:14924-14929). Macrophages are isolated from control and 11β-HSD^−/− mice and assayed in a PMN phagocytosis assay as described above.

[4] = test system: 11β-HSD-1; experiment: 11β-reductase activity in human monocytes differentiating into macrophages, incubated with IL-4 (FIG. 8); type: cell-based; conditions: range of doses of IL-4, human monocytes at initiation of differentiation
Excerpt: Human Monocytes—monocytes isolated from peripheral blood by dextran sedimentation and percoll gradient methods. Monocytes were differentiated to Mφ @4×10^6 cells/ml over 4 days in Iscoves/10% autologous serum.
as §1
The manner in which differentiating macrophages acquire 11β-HSD-1 activity can be influenced by cytokines. In the experiment shown in FIG. 8, human monocytes at the initiation of differentiation into macrophages were incubated with a range of doses of IL-4. 11β-reductase activity was measured by incubation with tritiated 11-DHC.

[5] = test system: blood glucose levels; conditions: oral administration, two mouse models of diabetes; cited from earlier work

T1 sequence (P50172 whole entry): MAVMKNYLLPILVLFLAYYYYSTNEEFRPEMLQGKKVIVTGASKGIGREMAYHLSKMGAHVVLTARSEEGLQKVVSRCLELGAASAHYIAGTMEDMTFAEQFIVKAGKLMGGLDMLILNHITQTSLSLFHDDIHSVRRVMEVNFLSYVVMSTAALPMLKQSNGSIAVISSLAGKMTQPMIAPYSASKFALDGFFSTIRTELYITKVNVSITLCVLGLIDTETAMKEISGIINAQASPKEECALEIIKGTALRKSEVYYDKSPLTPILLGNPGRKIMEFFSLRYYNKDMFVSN

Compound | enhanced phagocytic effect in 11βHSD-1-/- Mφ [3] | phagocytosis of apoptotic PMN by BMD Mφ [3] | phagocytosis performance of macrophages [2] | other results
CC1(C)[C@@H](OC(=O)CCC(=O)O)CC[C@]2(C)[C@H]3C(=O)C=C4[C@@H]5C[C@@](C)(C(=O)O)CC[C@]5(C)CC[C@@]4(C)[C@]3(C)CC[C@@H]12 [carbenoxolone] | – | – | – | effect on conversion of (A) to (B) by 11β-HSD1 ([1]; high concentrations of carbenoxolone): can be blocked; effect of inactive 11-dehydrocorticosterone on phagocytosis in the presence of the inhibitor ([2]; macrophages incubated with 11-dehydrocorticosterone plus carbenoxolone): completely abolishes
C[C@]12CC(=O)[C@H]3[C@@H](CCC4=CC(=O)CC[C@@]43C)[C@@H]1CC[C@@H]2C(=O)CO [11-dehydrocorticosterone] | abrogated | enhancement of phagocytosis | two-fold | conversion of inactive 11-dehydrocorticosterone (A) to active corticosterone (B) ([1]; mouse macrophages, over a 24 hour period): clearly shows conversion of (A) to (B)
C[C@]12C[C@H](O)[C@H]3[C@@H](CCC4=CC(=O)CC[C@@]43C)[C@@H]1CC[C@@H]2C(=O)CO [corticosterone] | no effect | enhancement of phagocytosis | two-fold | –
IL-4: cytokine capable of inducing 11β-HSD 1 expression | – | – | – | conversion of inert 11-DHC to active corticosterone (11β-reductase activity) [4]: dose-relatedly increased
C=CC(C)(C)c1[nH]c2ccccc2c1C1=C(O)C(=O)C(c2c[nH]c3c(CC=C(C)C)cccc23)=C(O)C1=O [L-783,281] | – | – | – | blood glucose levels [5]: significant lowering
